Here are results for four substances from patent publication US7737120B2 (Aicuris GmbH & Co. KG, priority 2004, dated 2010).

Entries after “also recorded” stand apart in the source; their conditions may differ.

In data set [1] the test system is papain. Description: papain (1:50) in cleavage buffer (0.1 M sodium phosphate/10 mM cysteine, 2 mM EDTA pH 6.5) with methanol. As to conditions: 37° C., up to 24 h.
Data set [2] relates to thermolysin. In words: thermolysin (1:50) in cleavage buffer (0.1 M ammonium hydrogencarbonate/0.5 M urea pH 8) with methanol. As to conditions: 37° C., up to 24 h.
In data set [3] the test system is bromelain. Description: bromelain (1:50) in cleavage buffer (0.1 M sodium phosphate, 10 mM cysteine, 2 mM EDTA pH 6.5) with methanol. As to conditions: 37° C., up to 24 h.
For data set [4], the system named is chymotrypsin. Description: chymotrypsin (1:50) in cleavage buffer (0.1 M ammonium hydrogencarbonate/0.5 M urea pH 8) with methanol. As to conditions: 37° C., up to 24 h.
In data set [5] the test system is chymotrypsin. In words: preparative cleavage, chymotrypsin (1:25) in cleavage buffer (0.1 M ammonium hydrogencarbonate/0.5 M urea pH 8) with methanol. As to conditions: 37° C., up to about 70 min.
The subject of data set [6] is subtilisin. In words: subtilisin (1:50) in cleavage buffer (0.1 M ammonium hydrogencarbonate/0.5 M urea pH 8) with methanol. As to conditions: 37° C., up to 24 h.
The test system of data set [7] is proteinase K. Description: proteinase K (1:50) in cleavage buffer (0.1 M sodium tetraborate pH 9) with methanol. As to conditions: 37° C., up to 24 h.
For data set [8], the system named is thermolysin. Description: thermolysin (1:50) in cleavage buffer (0.1 M tris(hydroxymethyl)aminomethane/5 mM calcium chloride pH 7.45) with methanol. As to conditions: 37° C., up to 24 h.
Data set [9] in a line: the buffer used (enzymatic digestion experiments).
Data set [10] has as its system pepsin. Description: pepsin. As to conditions: cited from earlier work.
The subject of data set [11] is Gram-positive aerobic and anaerobic bacteria. As to conditions: statement in words, background section; cited from earlier work.
Data set [12] concerns pepsin, trypsin, chymotrypsin and mucosal peptidase. As to conditions: cited from earlier work.

With “D-Leu-Leu-Ala(3-cyclohexyl)-Leu(OH)-Leu-D-Arg-Ile-allo-Thr-Gly-Asn(OH)-Ser”, the fragment found entry was “Peptide 5-11 (Leu-Arg-Ile-(allo)Thr-Gly-Asn(OH)-Ser); also recorded: Peptide 5-9 (Leu-Arg-Ile-(allo)Thr-Gly); also recorded: Peptide 10-11 (Asn(OH)-Ser); also recorded: Peptide 1-4 (Leu-Leu-PTHAla(3-cyclohexyl)*-Leu(OH))” in data set [1]; “Peptide 1-2 (Leu-Leu)” in data set [2]; “Peptide 1-9 (Leu-Leu-PTHAla(3-cyclohexyl)*-Leu(OH)-Leu-Arg-Ile-(allo)Thr-Gly); also recorded: Peptide 10-11 (Asn(OH)-Ser)” in [3]; “Peptide 4-11 (Leu(OH)-Leu-Arg-Ile-(allo)Thr-Gly-Asn(OH)-Ser); also recorded: Peptide 1-3 (Leu-Leu-PTHAla(3-cyclohexyl)*); also recorded: deamidated form (1-11); also recorded: deamidated form (4-11)” in data set [4]; “fragment 1-3 (LL(3-cyclohexyl)A); also recorded: fragment 4-11” in data set [5]; “Peptide 4-11 (Leu(OH)-Leu-Arg-Ile-(allo)Thr-Gly-Asn(OH)-Ser); also recorded: Peptide 1-3 (Leu-Leu-PTHAla(3-cyclohexyl)*)” in [6].
Consider “D-Leu-Leu-Phe-Leu(OH)-Leu-D-Arg-Ile-allo-Thr-Gly-Asn(OH)-Ser”, for which the fragment found entry is on record as “Peptide 5-11 (Leu-Arg-Ile-(allo)Thr-Gly-Asn(OH)-Ser); also recorded: Peptide 5-9 (Leu-Arg-Ile-(allo)Thr-Gly); also recorded: Peptide 10-11 (Asn(OH)-Ser); also recorded: Peptide 1-4 (Leu-Leu-Phe-Leu(OH))” in data set [1]; “Peptide 4-11 (Leu(OH)-Leu-Arg-Ile-(allo)Thr-Gly-Asn(OH)-Ser); also recorded: Peptide 5-11 (Leu-Arg-Ile-(allo)Thr-Gly-Asn(OH)-Ser)” in [7]; “Peptide 3-11 (Phe-Leu(OH)-Leu-Arg-Ile-(allo)Thr-Gly-Asn(OH)-Ser); also recorded: Peptide 1-2 (Leu-Leu)” in data set [8]; “Peptide 1-9 (Leu-Leu-Phe-Leu(OH)-Leu-Arg-Ile-(allo)Thr-Gly); also recorded: Peptide 10-11 (Asn(OH)-Ser)” in data set [3]; “Peptide 4-11 (Leu(OH)-Leu-Arg-Ile-(allo)Thr-Gly-Asn(OH)-Ser); also recorded: Peptide 1-3 (Leu-Leu-Phe)” in [4]; “fragment 4-11; also recorded: fragment 1-3 (LLF)” in [5]. The fragment found result in data set [6] is “Peptide 4-11 (Leu(OH)-Leu-Arg-Ile-(allo)Thr-Gly-Asn(OH)-Ser); also recorded: Peptide 1-3 (Leu-Leu-Phe)”.
For the substance “D-Leucyl-L-leucyl-[(3R)-3-hydroxy-L-phenylalanyl)]-[(3R)-3-hydroxy-L-leucyl]-L-leucyl-D-arginyl-L-isoleucyl-L-allothreonyl-glycyl-[(3S)-3-hydroxy-L-asparaginyl]-L-serine-C1^0.11-O3^0.3-lactone bistrifluoroacetate”, in data set [9], the fragment found result is “open-chain lysobactin; also recorded: β-hydroxyaspartate unit”. Also, the not cleaved entry in data set [10] is on record as “no enzymatic digestion (in the case of pepsin)”.
Take “D-Leucyl-N-1-{(3S,6S,12S,15S,18R,21S,24S,27S,28R)-6-[(1S)-2-amino-1-hydroxy-2-oxoethyl-]18-(3-{[amino(imino)methyl]amino}propyl)-12-[(1S)-1-hydroxyethyl]-3-(hydroxymethyl)-24-[(1R)-1-hydroxy-2-methylpropyl]-21-isobutyl-15-[(1S)-1-methylpropyl]-2,5,8,11,14,17,20,23,26-nonaoxo-28-phenyl-1-oxa-4,7,10,13,16,19,22,25-octaazacyclo-octacosan-27-yl}-L-leucinamide Bistrifluoroacetate [Lysobactin]”: the “activity against Gram-positive aerobic and anaerobic bacteria” value in [11] was “strong activity”. Moreover, the enzymatic digestion result in [12] was “no (such as in the case of pepsin, for example) or only inadequate enzymatic digestion”.
